Earlier results on 3 substances are cited in US8748570B2, “Insulin analogues” (priority 2010, dated 2014).

One data set has as its target IGF-IR (Homo sapiens, UniProt P08069).
The test system of data set [1] is cultured human lymphocytes.

Read-outs that look alike come from different tables or passages of the source.

With “detemir: long-acting insulin with a fatty acid chain on the ε-amino group of LysB29”, the in vivo potency result was “reduced”.
With “Glargine insulin: long-acting insulin: two arginines added to the B-chain C-terminus, glycine at A21”, the IGF-IR binding entry in the data set with IGF-IR is recorded as “enhanced”. Further, under “in vivo”, the duration of activity is 24 h and the “peak time of effect” value is reported as “no peak effect”.
Regarding “A7, B7-(2,7-diaminosuberoyl]-des-(B26-B30)-insulin B25-amide [dicarba-A7-B7-insulin]”, in data set [1], the Relative binding affinity is given as 0.1 % of human insulin. In addition, the EC50 in the data set with isolated rat adipocytes (lipogenesis, read-out: ED50 (the source's name)) was 4.8 nM. The “relative potency compared to human insulin” value with isolated rat adipocytes (on a molar basis) was 0.66%; in the data set on isolated rat adipocytes (on a weight basis) it was 0.72%.
